# From PubChem BioAssay (NCI)
#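 Compound exposure: 48 hours, 5 concentrations, 96-well plates. TGI: total growth inhibition.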
# How the values were obtained:
# Experiment in all cases: DTP human tumour cell line panel, 48 h
# U251 CNS = tested on: U251 CNS
# PC-3 prostate = tested on: PC-3 prostate
# RPMI-8226 leukemia = tested on: RPMI-8226 leukemia
# NCI-H23 lung = tested on: NCI-H23 lung
# UACC-257 melanoma = tested on: UACC-257 melanoma
# OVCAR-5 ovarian = tested on: OVCAR-5 ovarian
# CCRF-CEM leukemia = tested on: CCRF-CEM leukemia
# HL-60(TB) leukemia = tested on: HL-60(TB) leukemia
# KM12 colon = tested on: KM12 colon
# SF-295 CNS = tested on: SF-295 CNS
# T-47D breast = tested on: T-47D breast
# CAKI-1 renal = tested on: CAKI-1 renal
# BT-549 breast = tested on: BT-549 breast
# NCI-H226 lung = tested on: NCI-H226 lung
# OVCAR-4 ovarian = tested on: OVCAR-4 ovarian
# K-562 leukemia = tested on: K-562 leukemia
# MALME-3M melanoma = tested on: MALME-3M melanoma
# M14 melanoma = tested on: M14 melanoma
# IGROV1 ovarian = tested on: IGROV1 ovarian
# HT29 colon = tested on: HT29 colon
# COLO 205 colon = tested on: COLO 205 colon
# SN12C renal = tested on: SN12C renal
# HOP-92 NSCLC = tested on: HOP-92 NSCLC
# UO-31 renal = tested on: UO-31 renal
# LOX IMVI melanoma = tested on: LOX IMVI melanoma
# HCT-15 colon = tested on: HCT-15 colon
# HS 578T breast = tested on: HS 578T breast
# MCF7 breast = tested on: MCF7 breast
# SK-MEL-5 melanoma = tested on: SK-MEL-5 melanoma
# SR leukemia = tested on: SR leukemia
# NCI-H522 lung = tested on: NCI-H522 lung
# OVCAR-3 ovarian = tested on: OVCAR-3 ovarian
# SK-OV-3 ovarian = tested on: SK-OV-3 ovarian
# DU-145 prostate = tested on: DU-145 prostate
# NCI/ADR-RES ovarian = tested on: NCI/ADR-RES ovarian
# HCC-2998 colon = tested on: HCC-2998 colon
# SNB-19 CNS = tested on: SNB-19 CNS
# TK-10 renal = tested on: TK-10 renal
# SW-620 colon = tested on: SW-620 colon
# EKVX NSCLC = tested on: EKVX NSCLC
# UACC-62 melanoma = tested on: UACC-62 melanoma
# MDA-MB-435 = tested on: MDA-MB-435
# RXF 393 renal = tested on: RXF 393 renal
# SK-MEL-2 melanoma = tested on: SK-MEL-2 melanoma
# MDA-N = tested on: MDA-N
# SF-539 CNS = tested on: SF-539 CNS
# ACHN renal = tested on: ACHN renal
# SNB-75 CNS = tested on: SNB-75 CNS
# HCT-116 colon = tested on: HCT-116 colon
# HOP-62 NSCLC = tested on: HOP-62 NSCLC
# 786-0 renal = tested on: 786-0 renal
# SK-MEL-28 melanoma = tested on: SK-MEL-28 melanoma
# SF-268 CNS = tested on: SF-268 CNS
# A549 NSCLC = tested on: A549 NSCLC
# OVCAR-8 ovarian = tested on: OVCAR-8 ovarian
# MOLT-4 leukemia = tested on: MOLT-4 leukemia
# NCI-H460 lung = tested on: NCI-H460 lung
# A498 renal = tested on: A498 renal
# MDA-MB-231 breast = tested on: MDA-MB-231 breast
smiles,measurement,setting,value
CC1(C)CN=C(Nc2ccc(F)cc2)S1,TGI,U251 CNS,> 100 µM
same,TGI,PC-3 prostate,> 100 µM
same,TGI,RPMI-8226 leukemia,> 100 µM
same,TGI,NCI-H23 lung,> 100 µM
same,TGI,UACC-257 melanoma,> 100 µM
same,TGI,OVCAR-5 ovarian,> 100 µM
same,TGI,CCRF-CEM leukemia,> 100 µM
same,TGI,HL-60(TB) leukemia,> 100 µM
same,TGI,KM12 colon,> 100 µM
same,TGI,SF-295 CNS,> 100 µM
same,TGI,T-47D breast,> 100 µM
same,TGI,CAKI-1 renal,> 100 µM
same,TGI,BT-549 breast,> 100 µM
same,TGI,NCI-H226 lung,> 100 µM
same,TGI,OVCAR-4 ovarian,> 100 µM
same,TGI,K-562 leukemia,> 100 µM
same,TGI,MALME-3M melanoma,> 100 µM
same,TGI,M14 melanoma,> 100 µM
same,TGI,IGROV1 ovarian,> 100 µM
same,TGI,HT29 colon,> 100 µM
same,TGI,COLO 205 colon,> 100 µM
same,TGI,SN12C renal,> 100 µM
same,TGI,HOP-92 NSCLC,> 100 µM
same,TGI,UO-31 renal,> 100 µM
same,TGI,LOX IMVI melanoma,> 100 µM
same,TGI,HCT-15 colon,> 100 µM
same,TGI,HS 578T breast,> 100 µM
same,TGI,MCF7 breast,> 100 µM
same,TGI,SK-MEL-5 melanoma,> 100 µM
same,TGI,SR leukemia,> 100 µM
same,TGI,NCI-H522 lung,> 100 µM
same,TGI,OVCAR-3 ovarian,> 100 µM
same,TGI,SK-OV-3 ovarian,> 100 µM
same,TGI,DU-145 prostate,> 100 µM
same,TGI,NCI/ADR-RES ovarian,> 100 µM
same,TGI,HCC-2998 colon,> 100 µM
same,TGI,SNB-19 CNS,> 100 µM
same,TGI,TK-10 renal,> 100 µM
same,TGI,SW-620 colon,> 100 µM
same,TGI,EKVX NSCLC,> 100 µM
same,TGI,UACC-62 melanoma,> 100 µM
same,TGI,MDA-MB-435,> 100 µM
same,TGI,RXF 393 renal,> 100 µM
same,TGI,SK-MEL-2 melanoma,> 100 µM
same,TGI,MDA-N,> 100 µM
same,TGI,SF-539 CNS,> 100 µM
same,TGI,ACHN renal,> 100 µM
same,TGI,SNB-75 CNS,> 100 µM
same,TGI,HCT-116 colon,> 100 µM
same,TGI,HOP-62 NSCLC,> 100 µM
same,TGI,786-0 renal,> 100 µM
same,TGI,SK-MEL-28 melanoma,> 100 µM
same,TGI,SF-268 CNS,> 100 µM
same,TGI,A549 NSCLC,> 100 µM
same,TGI,OVCAR-8 ovarian,> 100 µM
same,TGI,MOLT-4 leukemia,> 100 µM
CC(C)(C)c1cc(OCc2nnc3sc(-c4ccc(Cl)cc4)nn23)c(Cl)cc1OCc1nnc2sc(-c3ccc(Cl)cc3)nn12,TGI,U251 CNS,28.7 µM
same,TGI,PC-3 prostate,> 100 µM
same,TGI,NCI-H460 lung,12.9 µM
same,TGI,RPMI-8226 leukemia,23.6 µM
same,TGI,NCI-H23 lung,20.6 µM
same,TGI,UACC-257 melanoma,40.7 µM
same,TGI,OVCAR-5 ovarian,88.9 µM
same,TGI,HL-60(TB) leukemia,7.36 µM
same,TGI,KM12 colon,11.1 µM
same,TGI,SF-295 CNS,18.2 µM
same,TGI,T-47D breast,14.9 µM
same,TGI,CAKI-1 renal,11.4 µM
same,TGI,BT-549 breast,34.6 µM
same,TGI,NCI-H226 lung,54.3 µM
same,TGI,OVCAR-4 ovarian,57.8 µM
same,TGI,K-562 leukemia,12.5 µM
same,TGI,MALME-3M melanoma,21.8 µM
same,TGI,M14 melanoma,88.6 µM
same,TGI,IGROV1 ovarian,21.4 µM
same,TGI,HT29 colon,83.6 µM
same,TGI,COLO 205 colon,29.3 µM
same,TGI,SN12C renal,> 100 µM
same,TGI,HOP-92 NSCLC,16.3 µM
same,TGI,UO-31 renal,26.1 µM
same,TGI,LOX IMVI melanoma,54.2 µM
same,TGI,HCT-15 colon,38.8 µM
same,TGI,HS 578T breast,> 100 µM
same,TGI,A498 renal,26.1 µM
same,TGI,MCF7 breast,10.9 µM
same,TGI,SK-MEL-5 melanoma,3.47 µM
same,TGI,SR leukemia,2.91 µM
same,TGI,NCI-H522 lung,29.9 µM
same,TGI,OVCAR-3 ovarian,8.73 µM
same,TGI,SK-OV-3 ovarian,27 µM
same,TGI,DU-145 prostate,31.3 µM
same,TGI,NCI/ADR-RES ovarian,35.6 µM
same,TGI,HCC-2998 colon,9.72 µM
same,TGI,SNB-19 CNS,87.6 µM
same,TGI,MDA-MB-231 breast,38.3 µM
same,TGI,TK-10 renal,36.8 µM
same,TGI,SW-620 colon,32.9 µM
same,TGI,EKVX NSCLC,97.9 µM
same,TGI,UACC-62 melanoma,39.1 µM
same,TGI,RXF 393 renal,19.3 µM
same,TGI,SK-MEL-2 melanoma,44.9 µM
same,TGI,MDA-N,3.46 µM
same,TGI,SF-539 CNS,15.2 µM
same,TGI,ACHN renal,24.4 µM
same,TGI,SNB-75 CNS,9.8 µM
same,TGI,HCT-116 colon,26 µM
same,TGI,HOP-62 NSCLC,51.4 µM
same,TGI,786-0 renal,16.5 µM
same,TGI,SK-MEL-28 melanoma,33.3 µM
same,TGI,SF-268 CNS,> 100 µM
same,TGI,A549 NSCLC,20.4 µM
same,TGI,OVCAR-8 ovarian,19.8 µM
same,TGI,MOLT-4 leukemia,31.2 µM
[N-]=[N+]=Nc1c(N2CCOCC2)c(Cl)nc2ccccc12,TGI,U251 CNS,> 100 µM
same,TGI,PC-3 prostate,> 100 µM
same,TGI,NCI-H460 lung,> 100 µM
same,TGI,RPMI-8226 leukemia,> 100 µM
same,TGI,NCI-H23 lung,> 100 µM
same,TGI,UACC-257 melanoma,78.3 µM
same,TGI,OVCAR-5 ovarian,> 100 µM
same,TGI,CCRF-CEM leukemia,> 100 µM
same,TGI,HL-60(TB) leukemia,> 100 µM
same,TGI,KM12 colon,88.6 µM
same,TGI,SF-295 CNS,> 100 µM
same,TGI,T-47D breast,> 100 µM
same,TGI,CAKI-1 renal,> 100 µM
same,TGI,BT-549 breast,> 100 µM
same,TGI,NCI-H226 lung,> 100 µM
same,TGI,OVCAR-4 ovarian,> 100 µM
same,TGI,K-562 leukemia,> 100 µM
same,TGI,MALME-3M melanoma,> 100 µM
same,TGI,M14 melanoma,> 100 µM
same,TGI,IGROV1 ovarian,> 100 µM
same,TGI,HT29 colon,72.9 µM
same,TGI,COLO 205 colon,> 100 µM
same,TGI,SN12C renal,> 100 µM
same,TGI,HOP-92 NSCLC,> 100 µM
same,TGI,UO-31 renal,> 100 µM
same,TGI,LOX IMVI melanoma,> 100 µM
same,TGI,HCT-15 colon,> 100 µM
same,TGI,HS 578T breast,> 100 µM
same,TGI,A498 renal,> 100 µM
same,TGI,SK-MEL-5 melanoma,49.6 µM
same,TGI,SR leukemia,> 100 µM
same,TGI,NCI-H522 lung,> 100 µM
same,TGI,OVCAR-3 ovarian,> 100 µM
same,TGI,SK-OV-3 ovarian,> 100 µM
same,TGI,NCI/ADR-RES ovarian,> 100 µM
same,TGI,HCC-2998 colon,> 100 µM
same,TGI,SNB-19 CNS,> 100 µM
same,TGI,MDA-MB-231 breast,> 100 µM
same,TGI,TK-10 renal,> 100 µM
same,TGI,SW-620 colon,> 100 µM
same,TGI,EKVX NSCLC,> 100 µM
same,TGI,MDA-MB-435,> 100 µM
same,TGI,RXF 393 renal,> 100 µM
same,TGI,SK-MEL-2 melanoma,> 100 µM
same,TGI,MDA-N,> 100 µM
same,TGI,SF-539 CNS,> 100 µM
same,TGI,ACHN renal,> 100 µM
same,TGI,SNB-75 CNS,> 100 µM
same,TGI,HCT-116 colon,> 100 µM
same,TGI,HOP-62 NSCLC,> 100 µM
same,TGI,786-0 renal,> 100 µM
same,TGI,SK-MEL-28 melanoma,> 100 µM
same,TGI,SF-268 CNS,> 100 µM
same,TGI,A549 NSCLC,> 100 µM
same,TGI,OVCAR-8 ovarian,> 100 µM
same,TGI,MOLT-4 leukemia,> 100 µM
